# Data: patent publication US20100292255A1, “Therapeutic Compounds and Their Use in Treating Diseases and Disorders” (Myriad Pharmaceuticals, Inc., priority 2007, published 2010)
# pIC50: −log10 of the molar value.
# Test system: T1, purified human Hsp90
# T1 construct: purified human Hsp90 (Stressgen, SPP-770)
# Assay: Hsp90 binding assay: displacement of BODIPY-labeled geldanamycin measured by fluorescence polarization
# Details: 5 μM compound; BODIPY-GM 10 nM, Hsp90 30 nM, overnight at room temperature
# Summary of the method: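 Purified human Hsp90 at 30 nM and 10 nM BODIPY-GM tracer were incubated overnight at room temperature with compound in 2% DMSO. The buffer was 20 mM HEPES-KOH pH 7.3, 50 mM KCl, 5 mM MgCl2, 20 mM Na2MoO4, 2 mM DTT. Background-subtracted mP values read at 485/530 nm were normalized to DMSO wells to give % inhibition.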
row,GM displacement from purified Hsp90 measured by FP Inhibition by 5 μM compd. (%),Compound
1,59.0%,"CC(C)(C)[C@H](O)C(=O)N1CCC(CCn2cnc(N)c3nc(Sc4cc5c(cc4Br)OCCO5)nc2-3)CC1 [compound 107, (2S)-1-[4-(2-{6-Amino-8-[(7-bromo-2,3-dihydro-1,4-benzodioxin-6-yl)thio]-3H-purin-3-yl}ethyl)piperidin-1-yl]-3,3-dimethyl-1-oxobutan-2-ol]"
2,58.0%,"C[C@H](O)C(=O)N1CCC(CCn2cnc(N)c3nc(Sc4cc5c(cc4Br)CCC5)nc2-3)CC1 [compound 109, (S)-1-(4-{2-[6-Amino-8-(6-bromo-indan-5-ylsulfanyl)-purin-3-yl]-ethyl}-piperidin-1-yl)-2-hydroxy-propan-1-one]"
3,13.0%,"CCc1ccc(Br)c(Sc2nc3c(N)ncn(CCC4CCN(C(=O)[C@H](C)O)CC4)c-3n2)c1 [compound 112, (2S)-1-[4-(2-{6-Amino-8-[(2-bromo-5-ethylphenyl)thio]-3H-purin-3-yl}ethyl)piperidin-1-yl]-1-oxopropan-2-ol]"
4,15.0%,"C[C@H](NC(=O)OC(C)(C)C)C(=O)N1CCCC(Cn2cnc(N)c3nc(Sc4nc5cccc(Cl)c5s4)nc2-3)C1 (stereo partly drawn) [compound 116, tert-Butyl {(1S)-2-[3-({6-amino-8-[(7-chloro-1,3-benzothiazol-2-yl)thio]-3H-purin-3-yl}methyl)piperidin-1-yl]-1-methyl-2-oxoethyl}carbamate]"
5,12.0%,"COc1cc(OC)c(Cl)c(Sc2nc3c(N)ncn(CC4CCCN(C(=O)[C@H](C)NC(=O)OC(C)(C)C)C4)c-3n2)c1 (stereo partly drawn) [compound 118, tert-Butyl {(1S)-2[3-({6-amino-8-[(2-chloro-3,5-dimethoxyphenyl)thio]-3H-purin-3-yl}methyl)piperidin-1-yl]-1-methyl-2-oxoethyl}carbamate]"

# Further lines, the compound ahead of its results:
row,Compound,GM displacement from purified Hsp90 measured by FP Inhibition by 5 μM compd. (%)
1,"Nc1ncn(CCC2CCN(C(=O)CO)CC2)c2nc(Sc3cc4c(cc3Br)OCCO4)nc1-2 [compound 91, 2-[4-(2-{6-Amino-8-[(7-bromo-2,3-dihydro-1,4-benzodioxin-6-yl)thio]-3H-purin-3-yl}ethyl)piperidin-1-yl]-2-oxoethanol]",32.0%
2,"CC(C)(O)C(=O)N1CCC(CCn2cnc(N)c3nc(Sc4cc5c(cc4Br)OCCO5)nc2-3)CC1 [compound 93, l-[4-(2-{6-Amino-8-[(7-bromo-2,3-dihydro-1,4-benzodioxin-6-yl)thio]-3H-purin-3-yl}ethyl)piperidin-1-yl]-2-methyl-1-oxopropan-2-ol]",53.0%
3,"COc1ccc(Br)c(Sc2nc3c(N)ncn(CCC4CCN(C(=O)CO)CC4)c-3n2)c1 [compound 94, 2-[4-(2-{6-Amino-8-[(2-bromo-5-methoxyphenyl)thio]-3H-purin-3-yl}ethyl)piperidin-1-yl]-2-oxoethanol]",10.0%
4,"C[C@H](O)C(=O)N1CCC(CCn2cnc(N)c3nc(Sc4cc5c(cc4C#N)OCO5)nc2-3)CC1 [compound 96, 6-{[6-Amino-3-(2-{1-[(2S)-2-hydroxypropanoyl]piperidin-4-yl}ethyl)-3H-purin-8-yl]thio}-1,3-benzodioxole-5-carbonitrile]",13.0%
5,"C[C@H](O)C(=O)N1CCC(CCn2cnc(N)c3nc(Sc4cc5c(cc4C#N)OCCO5)nc2-3)CC1 [compound 100, 7-{[6-Amino-3-(2-{1-[(2S)-2-hydroxypropanoyl]piperidin-4-yl}ethyl)-3H-purin-8-yl]thio}-2,3-dihydro-1,4-benzodioxine-6-carbonitrile]",27.0%
6,"COc1ccc(OC(F)(F)F)c(Sc2nc3c(N)ncn(CCC4CCN(C(=O)CO)CC4)c-3n2)c1 [compound 103, 2-{4-[2-(6-Amino-8-{[5-methoxy-2-(trifluoromethoxy)phenyl]thio}-3H-purin-3-yl)ethyl]piperidin-1-yl}-2-oxoethanol]",18.0%
7,"COc1ccc(C#N)c(Sc2nc3c(N)ncn(CCC4CCN(C(=O)CO)CC4)c-3n2)c1 [compound 105, 2-({6-Amino-3-[2-(1-glycoloylpiperidin-4-yl)ethyl]-3H-purin-8-yl}thio)-4-methoxybenzonitrile]",17.0%

# Same assay, conditions: BODIPY-GM 10 nM, Hsp90 30 nM, overnight at room temperature; read-out: GM displacement from purified Hsp90 measured by FP IC 50
row,pIC50,Compound
1,6.80,"C[C@H](O)C(=O)N1CCC(CCn2c(Sc3cc4c(cc3Br)CCC4)nc3c(N)ncnc32)CC1 [compound 108, (S)-1-(4-{2-[6-Amino-8-(6-bromo-indan-5-ylsuIfanyl)-purin-9-yl]-ethyl}-piperidin-1-yl)-2-hydroxy-propan-1-one]"
2,7.14,"C[C@@H](O)C(=O)N1CCC(CCn2c(Sc3cc4c(cc3Br)OCCO4)nc3c(N)ncnc32)CC1 [compound 113, (2R)-1-[4-(2-{6-Amino-8-[(7-bromo-2,3-dihydro-1,4-benzodioxin-6-yl)thio]-9H-purin-9-yl}ethyl)piperidin-1-yl]-1-oxopropan-2-ol]"
3,6.40,"C[C@@H](NC(=O)OC(C)(C)C)C(=O)N1CCC(Cn2c(Sc3cc4c(cc3Br)OCCO4)nc3c(N)ncnc32)CC1 [compound 120, tert-Butyl {(1R)-2-[4-({6-amino-8-[(7-bromo-2,3-dihydro-1,4-benzodioxin-6-yl)thio]-9H-purin-9-yl}methyl)piperidin-1-yl]-1-methyl-2-oxoethyl}carbamate]"
4,5.42,"COc1cc(OC)c(Cl)c(Sc2nc3c(N)ncnc3n2CC2CCCN(C(=O)[C@H](C)N)C2)c1 (stereo partly drawn) [compound 123, 9-({1-[(2S)-2-Aminopropanoyl]piperidin-3-yl}methyl)-8-[(2-chloro-3,5-dimethoxyphenyl)thio]-9H-purin-6-amine]"
5,6.53,"C[C@@H](N)C(=O)N1CCC(Cn2c(Sc3cc4c(cc3Br)OCCO4)nc3c(N)ncnc32)CC1 [compound 124, 9-([1-[(2R)-2-Aminopropanoyl]piperidin-4-yl}methyl)-8-[(7-bromo-2,3-dihydro-1,4-benzodioxin-6-yl)thio]-9H-purin-6-amine]"
6,6.30,"C[C@H](N)C(=O)N1CCC(Cn2c(Sc3cc4c(cc3Br)OCCO4)nc3c(N)ncnc32)CC1 [compound 125, 9-({1-[(2S)-2-Aminopropanoyl]piperidin-4-yl}methyl)-8-[(7-bromo-2,3-dihydro-1,4-benzodioxin-6-yl)thio]-9H-purin-6-amine]"
7,< 5.30,"C[C@H](O)C(=O)N[C@H](C)C(=O)N1CCC(Cn2c(Sc3cc4c(cc3Br)OCCO4)nc3c(N)ncnc32)CC1 [compound 126, (2S)-N-{(1R)-2-[4-({6-Amino-8-[(7-bromo-2,3-dihydro-1,4-benzodioxin-6-yl)thio]-9H-purin-9-yl}methyl)piperidin-1-yl]-1-methyl-2-oxoethyl}-2-hydroxypropanamide]"

# The remaining lines, values behind:
row,Compound,pIC50
1,"Nc1ncnc2c1nc(Sc1cc3c(cc1Br)OCCO3)n2CCC1CCN(C(=O)CO)CC1 [compound 90, 2-[4-(2-{6-Amino-8-[(7-bromo-2,3-dihydro-1,4-benzodioxin-6-yl)thio]-9H-purin-9-yl}ethyl)piperidin-1-yl]-2-oxoethanol]",7.05
2,"CC(C)(O)C(=O)N1CCC(CCn2c(Sc3cc4c(cc3Br)OCCO4)nc3c(N)ncnc32)CC1 [compound 92, 1-[4-(2-{6-Amino-8-[(7-bromo-2,3-dihydro-1,4-benzodioxin-6-yl)thio]-9H-purin-9-yl}ethyl)piperidin-1-yl]-2-methyl-1-oxopropan-2-ol]",7.05
3,"C[C@H](O)C(=O)N1CCC(CCn2c(Sc3cc4c(cc3C#N)OCO4)nc3c(N)ncnc32)CC1 [compound 95, 6-{[6-Amino-9-(2-{1-[(2S)-2-hydroxypropanoyl]piperidin-4-yl}ethyl)-9H-purin-8-yl]thio}-l,3-benzodioxole-5-carbonitrile]",6.15
4,"N#Cc1cc2c(cc1Sc1nc3c(N)ncnc3n1CCC1CCN(C(=O)CO)CC1)OCO2 [compound 97, 6-({6-Amino-9-[2-(1-glycoloylpiperidin-4-yl)ethyl]-9H-purin-8-yl}thio)-1,3-benzodioxole-5-carbonitrile]",6.46
5,"C[C@H](O)C(=O)N1CCC(CCn2c(Sc3cc4c(cc3C#N)OCCO4)nc3c(N)ncnc32)CC1 [compound 99, 7-{[6-Amino-9-(2-{1-[(2S)-2-hydroxypropanoyl]piperidin-4-yl}ethyl)-9H-purin-8-yl]thio}-2,3-dihydro-1,4-benzodioxine-6-carbonitrile]",6.31
6,"N#Cc1cc2c(cc1Sc1nc3c(N)ncnc3n1CCC1CCN(C(=O)CO)CC1)OCCO2 [compound 101, 7-({6-Amino-9-[2-(1-glycoloylpiperidin-4-yl)ethyl]-9H-purin-8-yl}thio)-2,3-dihydro-1,4-benzodioxine-6-carbonitrile]",6.70
7,"COc1ccc(OC(F)(F)F)c(Sc2nc3c(N)ncnc3n2CCC2CCN(C(=O)CO)CC2)c1 [compound 102, 2-{4-[2-(6-Amino-8-{[5-methoxy-2-(trifluoromethoxy)phenyl]thio}-9H-purin-9-yl)ethyl]piperidin-1-yl}-2-oxoethanol]",6.55
8,"COc1ccc(C#N)c(Sc2nc3c(N)ncnc3n2CCC2CCN(C(=O)CO)CC2)c1 [compound 104, 2-({6-Amino-9-[2-(1-glycoloylpiperidin-4-yl)ethyl]-9H-purin-8-yl}thio)-4-methoxybenzonitrile]",6.10
9,"CC(C)(C)[C@H](O)C(=O)N1CCC(CCn2c(Sc3cc4c(cc3Br)OCCO4)nc3c(N)ncnc32)CC1 [compound 106, (2S)-1-[4-(2-{6-Amino-8-[(7-bromo-2,3-dihydro-1,4-benzodioxin-6-yl)thio]-9H-purin-9-yl}ethyl)piperidin-1-yl]-3,3-dimethyl-1-oxobutan-2-ol]",7.15
